For series [1] the following is noted: in vivo; cited from earlier work.
Series [2] is described as follows: In vivo pharmacokinetics studies, dMN + NLX-HCL gel with or without heating pod. Also noted: species or system albino Hartley guinea pigs. As to conditions: for enhancement in plasma concentration achieved with heat (vs no heat): 1 dMN; for plasma concentration, 2 dMN vs 1 dMN: non-heated. From the text:
In Vivo Pharmacokinetics Studies. Preliminary in vivo data were collected in male (n=3) and female (n=2) albino Hartley guinea pigs (a common small animal model for dermal drug studies). All study procedures were IACUC approved. A crossover study design was used, dMN with and without use of heat (described in Table 5). The dorsal hair was clipped (not shaved) a day prior to studies. Either one or two dMN arrays (for a total of 100 or 200 dMNs total) were applied to the dorsal skin of the animal using gentle thumb pressure, and the backing of the dMN was removed.
The heat reaction was initiated by removing the protective tape cover. This was the same approach and conditions as used for the in vitro studies. […] Blood samples were collected at 0, 5, 10, 15, 30, 60, 75, 90, and 120 min. Plasma was separated from the blood immediately after collection and stored at −80° C. until analysis. A thermocouple probe in contact with the skin during the in vivo studies was used to record the skin temperature at the same timepoints as blood sampling.
The mixture was vortexed for 60 sec and centrifuged at 10,000 rpm for 15 min. The supernatant ethyl acetate layer was pipetted off and placed in a 5 mL glass tube under dry nitrogen to evaporate the organic layer. The dried residues were reconstituted with 100 μL 0.1% formic acid and analyzed using LC/MS.
Data Analysis. […] It is understood that when discussed herein, 1 dMN refers to a condition with a single, 100 microneedle array and 2 dMN refers to a condition with two arrays. All conditions were compared with and without the heating pod. […] For all analyses, p<0.05 was considered statistically significant.

Counter-ions that a name gives are not always drawn.

Turning to `C=CCN1CC[C@]23c4c5ccc(O)c4O[C@H]2C(=O)CC[C@@]3(O)[C@H]1C5` [NLX, naloxone], in series [1], the NLX population clearance was 91 L/h.

For the molecule `C=CCN1CC[C@]23c4c5ccc(O)c4O[C@H]2C(=O)CC[C@@]3(O)[C@H]1C5` [NLX-HCL, naloxone hydrochloride], the “enhancement in plasma concentration achieved with heat (vs no heat)” value is listed as 2.4 in series [2] (5 min), 1.3 in series [2] (15 min), 1.2 in series [2] (30 min) and 1.4 in series [2] (60 min). The “AUC with heat compared to the same conditions without heat” value in series [2] (2 dMN, 0-5, 0-15, 0-30 and 0-60 min, p<0.05) was “significantly higher”. Moreover, the “enhancement of plasma concentrations by applied heat” value was found to be 2.1 × in series [2] (2 dMN, 5 min); 2.2 × in series [2] (2 dMN, 15 min); 2.1 × in series [2] (2 dMN, 30 min); 1.8 × in series [2] (2 dMN, 60 min). For the same molecule, in series [2] (2 or 1 dMN arrays), the “normalized plasma concentrations, heated vs dMN without heat” value is recorded as “not significantly higher”. Also, the “normalized plasma concentrations, 1 vs 2 dMN” value in series [2] (heated or not heated, at 5, 15, 30 and 60 min) was “no statistically significant differences”. In series [2] (heated, all time ranges tested, p<0.05), the “AUC 2 dMN vs 1 dMN” value is on record as “significantly higher”. The “plasma concentration, 2 dMN vs 1 dMN” value in series [2] (5 min) worked out at 2.1 ×; in series [2] (15 min), 1.6 ×; in series [2] (30 min), 2.0 ×; in series [2] (60 min), 2.3 ×.

Values taken from patent publication US20240390660A1, “APPARATUS, SYSTEMS AND METHODS FOR TRANSDERMAL DRUG DELIVERY, PERMEABILITY ENHANCEMENT AND AUGMENTATION” (University of Iowa Research Foundation, priority 2021, published 2024).
